Literature values in patent US20250381182A1, “ALDH-2 INHIBITOR COMPOUNDS AND METHODS OF USE” (Amygdala Neurosciences, Inc., priority 2024, published 2025).

Settings: O'Malley et al. 2021, Phase 2 study of ANS-6637; cited from earlier work

For O=C(NCc1ccc(-c2cc[nH]c(=O)c2)cc1)c1c(Cl)cccc1Cl [2,6-dichloro-N-[4-(2-oxo-1,2-dihydro-pyridin-4-yl)-benzyl]-benzamide], the hepatotoxicity in humans is listed as “high levels of hepatotoxicity”.
